ChEMBL document CHEMBL1201862, “PubChem BioAssay data set” (2004)
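1) Cells in 96-well plates. 2) Compound, 48 h, 5 concentrations. 3) Linear interpolation between surrounding doses. 4) Unreached endpoint = highest concentration. Abbreviation: GI50, concentration required for 50% inhibition of growth.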 Active and inactive are the calls of the source. Rule as the data show it: active = GI50 up to about 1.1 µM and inactive = higher.

Key:
Experiment in all cases: growth of human tumour cells (NCI), 48 h
OVCAR-8 = system: OVCAR-8
MCF7 = system: MCF7
HT-29 = system: HT-29
ACHN = system: ACHN
NCI-H226 = system: NCI-H226
PC-3 = system: PC-3
HCT-116 = system: HCT-116
UACC-257 = system: UACC-257
LOX IMVI = system: LOX IMVI
SF-539 = system: SF-539
OVCAR-3 = system: OVCAR-3
K562 = system: K562
EKVX = system: EKVX
BT-549 = system: BT-549
SF-295 = system: SF-295
SK-MEL-5 = system: SK-MEL-5
T47D = system: T47D
CCRF-CEM = system: CCRF-CEM
TK-10 = system: TK-10
SK-OV-3 = system: SK-OV-3

Row | SMILES | GI50 (OVCAR-8) | GI50 (MCF7) | GI50 (HT-29) | GI50 (ACHN) | GI50 (NCI-H226) | GI50 (PC-3) | GI50 (HCT-116) | GI50 (UACC-257) | GI50 (LOX IMVI) | GI50 (SF-539) | GI50 (OVCAR-3) | GI50 (K562) | GI50 (EKVX) | GI50 (BT-549) | GI50 (SF-295) | GI50 (SK-MEL-5) | GI50 (T47D) | GI50 (CCRF-CEM) | GI50 (TK-10) | GI50 (SK-OV-3)
1 | Cc1cn(C2CC(Br)C(COC(c3ccccc3)(c3ccccc3)c3ccccc3)O2)c(=O)[nH]c1=O (stereo unspecified) | 10.9 µM (inactive) | 10 µM (inactive) | 10.9 µM (inactive) | 13.8 µM (inactive) | 19.2 µM (inactive) | 5.73 µM (inactive) | 8.2 µM (inactive) | 16.1 µM (inactive) | 11.9 µM (inactive) | 17.2 µM (inactive) | 12.6 µM (inactive) | 7.98 µM (inactive) | 14.5 µM (inactive) | 12 µM (inactive) | 9.68 µM (inactive) | 12.7 µM (inactive) | 12.3 µM (inactive) | 4.88 µM (inactive) | 14.7 µM (inactive) | 
2 | COc1ccc(C2c3cc4c(c(OC)c3CC3OCC(=O)C32)OCO4)cc1OC (stereo unspecified) | 0.0601 µM (active) | 0.0575 µM (active) | < 0.01 µM (active) | < 0.01 µM (active) | 0.0385 µM (active) | 0.0619 µM (active) | 0.0516 µM (active) |  | 0.0518 µM (active) | 0.0246 µM (active) |  | 0.0504 µM (active) | 0.0605 µM (active) | 0.0914 µM (active) | 0.0307 µM (active) | 0.037 µM (active) |  | 0.0371 µM (active) | 60.7 µM (inactive) | 0.0405 µM (active)
3 | Cn1c(=O)sc2cc(C(=S)N3CCC(Cc4ccccc4)CC3)ccc21 | 20.1 µM (inactive) | 41.7 µM (inactive) | 62.1 µM (inactive) | > 100 µM (inactive) | 15.3 µM (inactive) | 37.9 µM (inactive) | 45.9 µM (inactive) | 38.3 µM (inactive) | 58.5 µM (inactive) | > 100 µM (inactive) | 53.8 µM (inactive) | 34.9 µM (inactive) | 9.42 µM (inactive) | 30.3 µM (inactive) | 27.3 µM (inactive) | 26.9 µM (inactive) |  | 25.2 µM (inactive) | > 100 µM (inactive) | 58.5 µM (inactive)
4 | CC1CN(C)c2ccccc2N=C1NN (stereo unspecified) | > 100 µM (inactive) |  | > 100 µM (inactive) | > 100 µM (inactive) | > 100 µM (inactive) | > 100 µM (inactive) | > 100 µM (inactive) | > 100 µM (inactive) |  |  | > 100 µM (inactive) | 88.3 µM (inactive) | > 100 µM (inactive) | > 100 µM (inactive) | > 100 µM (inactive) | > 100 µM (inactive) |  | 87.5 µM (inactive) | > 100 µM (inactive) | > 100 µM (inactive)
5 | Cc1cc(S(=O)(=O)N2CCNNC2=O)c(S)cc1Cl | > 100 µM (inactive) | 77.3 µM (inactive) |  | > 100 µM (inactive) | > 100 µM (inactive) | > 100 µM (inactive) |  | > 100 µM (inactive) | 28.8 µM (inactive) | 37 µM (inactive) | > 100 µM (inactive) | 37.2 µM (inactive) | > 100 µM (inactive) | 20.8 µM (inactive) | > 100 µM (inactive) | > 100 µM (inactive) |  | 37 µM (inactive) | > 100 µM (inactive) | 
6 | CN(C(=O)c1cccs1)C(=S)N1CCN(c2ccccc2)CC1 | > 100 µM (inactive) | > 100 µM (inactive) | > 100 µM (inactive) | > 100 µM (inactive) | > 100 µM (inactive) |  |  | > 100 µM (inactive) | > 100 µM (inactive) |  | > 100 µM (inactive) | > 100 µM (inactive) |  | > 100 µM (inactive) | > 100 µM (inactive) | > 100 µM (inactive) | > 100 µM (inactive) | > 100 µM (inactive) | > 100 µM (inactive) | 
7 | N#Cc1nc(-c2ccccc2C(=O)O)oc1N | > 100 µM (inactive) | > 100 µM (inactive) | > 100 µM (inactive) | > 100 µM (inactive) | > 100 µM (inactive) | > 100 µM (inactive) | > 100 µM (inactive) | > 100 µM (inactive) | > 100 µM (inactive) | > 100 µM (inactive) | > 100 µM (inactive) | > 100 µM (inactive) | > 100 µM (inactive) |  | > 100 µM (inactive) | > 100 µM (inactive) | > 100 µM (inactive) | > 100 µM (inactive) | > 100 µM (inactive) | > 100 µM (inactive)
8 | Cc1nc2ccccc2c(=O)n1-c1n[nH]c2ccccc12 | > 100 µM (inactive) | > 100 µM (inactive) | > 100 µM (inactive) | > 100 µM (inactive) | 80.5 µM (inactive) | > 100 µM (inactive) | > 100 µM (inactive) | > 100 µM (inactive) | > 100 µM (inactive) | > 100 µM (inactive) | > 100 µM (inactive) | > 100 µM (inactive) | > 100 µM (inactive) | > 100 µM (inactive) | > 100 µM (inactive) | > 100 µM (inactive) | > 100 µM (inactive) | > 100 µM (inactive) | > 100 µM (inactive) | 
9 | CNc1nnc(CCCCCCCCc2nnc(NC)o2)o1 | 34.8 µM (inactive) | 20.7 µM (inactive) | 29.9 µM (inactive) | > 100 µM (inactive) | > 100 µM (inactive) | > 100 µM (inactive) | 20.3 µM (inactive) | 51.8 µM (inactive) | 16.4 µM (inactive) | > 100 µM (inactive) | 25.9 µM (inactive) | 31.9 µM (inactive) | > 100 µM (inactive) | > 100 µM (inactive) | 75.2 µM (inactive) | > 100 µM (inactive) |  | 16.2 µM (inactive) | > 100 µM (inactive) | > 100 µM (inactive)
10 | Cc1nc(N)c(N2CCN(C(=O)O)CC2)c(O)n1 | > 100 µM (inactive) | > 100 µM (inactive) | > 100 µM (inactive) | > 100 µM (inactive) | > 100 µM (inactive) | > 100 µM (inactive) | > 100 µM (inactive) | > 100 µM (inactive) | > 100 µM (inactive) | > 100 µM (inactive) | > 100 µM (inactive) | > 100 µM (inactive) | > 100 µM (inactive) | > 100 µM (inactive) | > 100 µM (inactive) |  | > 100 µM (inactive) | > 100 µM (inactive) | > 100 µM (inactive) | 
11 | c1ccc(C/C(=N\Nc2nc3ccccc3o2)c2ccccn2)cc1 | 0.0321 µM (active) | < 0.01 µM (active) | < 0.01 µM (active) | 0.0202 µM (active) | < 0.0483 µM (active) | < 0.01 µM (active) | < 0.01 µM (active) | 0.0775 µM (active) | 0.185 µM (active) | 0.114 µM (active) | 0.0137 µM (active) | 0.027 µM (active) | < 0.01 µM (active) | 0.342 µM (active) | 0.234 µM (active) | 0.0769 µM (active) |  | < 0.0122 µM (active) | 0.0668 µM (active) | 0.0237 µM (active)
12 | CC(CO)(CBr)COC(=O)c1cc(Br)c(N)c(Br)c1 (stereo unspecified) | > 100 µM (inactive) |  | > 100 µM (inactive) | 73.8 µM (inactive) | > 100 µM (inactive) | > 100 µM (inactive) | 94 µM (inactive) | > 100 µM (inactive) | > 100 µM (inactive) | > 100 µM (inactive) | > 100 µM (inactive) | > 100 µM (inactive) | 37.4 µM (inactive) | 76.2 µM (inactive) | 37.4 µM (inactive) | > 100 µM (inactive) | > 100 µM (inactive) | > 100 µM (inactive) | 43 µM (inactive) | 83.9 µM (inactive)
13 | O=C1c2c(ccc3c2CCC3)CC12Cc1cc3c(cc1C2)CCC3 | > 100 µM (inactive) | > 100 µM (inactive) | > 100 µM (inactive) | > 100 µM (inactive) | > 100 µM (inactive) | > 100 µM (inactive) | > 100 µM (inactive) | > 100 µM (inactive) | > 100 µM (inactive) | > 100 µM (inactive) | > 100 µM (inactive) | > 100 µM (inactive) | > 100 µM (inactive) |  | > 100 µM (inactive) | > 100 µM (inactive) | > 100 µM (inactive) | > 100 µM (inactive) | > 100 µM (inactive) | > 100 µM (inactive)
14 | O=S1(=O)OCCOS(=O)(=O)C1(F)Br | > 100 µM (inactive) | > 100 µM (inactive) | > 100 µM (inactive) | > 100 µM (inactive) | > 100 µM (inactive) | > 100 µM (inactive) | > 100 µM (inactive) | > 100 µM (inactive) | > 100 µM (inactive) | > 100 µM (inactive) | > 100 µM (inactive) | > 100 µM (inactive) | > 100 µM (inactive) |  | > 100 µM (inactive) | > 100 µM (inactive) | > 100 µM (inactive) | > 100 µM (inactive) | > 100 µM (inactive) | > 100 µM (inactive)
15 | CC(NC(=O)c1ccc(NP(=O)(OCc2ccc([N+](=O)[O-])o2)N(C)CCCCCl)cc1)c1ccc(OCC2CCCCC2)c(C(N)=O)c1 (stereo unspecified) | 31.6 µM (inactive) | 3.15 µM (inactive) | 18.3 µM (inactive) | 29 µM (inactive) | 16.4 µM (inactive) | 19.5 µM (inactive) | 16.2 µM (inactive) | 13.4 µM (inactive) | 13.7 µM (inactive) | 16.5 µM (inactive) | 11.6 µM (inactive) | 17.3 µM (inactive) |  |  | 15.5 µM (inactive) | 4.56 µM (inactive) | 5.37 µM (inactive) | 0.904 µM (active) | 23.4 µM (inactive) | 21.6 µM (inactive)
